Measurements as given in paper PMC7566811 (Bioorganic & medicinal chemistry, 2010).
Where a name gives a salt, the structure may show the parent alone.

Tests used:
[1] = ref 6a; cited from earlier work
[2] = Single dose pharmacokinetics in rats; conditions: rat; for AUC: 30 mg/kg po, normalized to a dose of 30 mg/kg
[3] = biological target: human CCR5 (Homo sapiens, UniProt P51681); test: Inhibition of calcium mobilization of hCCR5/CHO cells stimulated with MIP-1α; format: cell-based
[4] = Oral cassette dosing PK; format: in vivo
[5] = test system: T cell tropic (X4) HIV-1; test: Anti-HIV activity against X4 HIV-1; format: cell-based

Chain of human CCR5 (P51681 whole entry): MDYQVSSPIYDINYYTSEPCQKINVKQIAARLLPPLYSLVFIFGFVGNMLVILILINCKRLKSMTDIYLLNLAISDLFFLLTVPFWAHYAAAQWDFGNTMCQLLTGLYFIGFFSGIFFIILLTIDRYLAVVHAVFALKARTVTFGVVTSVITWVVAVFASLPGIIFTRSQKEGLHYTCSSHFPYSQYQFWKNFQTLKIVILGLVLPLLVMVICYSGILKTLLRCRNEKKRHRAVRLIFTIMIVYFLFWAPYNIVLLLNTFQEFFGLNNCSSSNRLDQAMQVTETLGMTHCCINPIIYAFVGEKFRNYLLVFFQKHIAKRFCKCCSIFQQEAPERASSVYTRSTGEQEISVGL

CCCCN1C(=O)C(CC2CCCCC2)NC(=O)C12CCN(Cc1ccc(Oc3ccccc3)cc1)CC2.Cl (stereo not drawn) [Compound 1a, 1-Butyl-3-(cyclohexylmethyl)-9-(4-phenoxybenzyl)-1,4,9-triazaspiro[5.5]undecane-2,5-dione hydrochloride]
Cytotoxicity [1]: minimal

CCCCN1C(=O)C(CC(C)C)NC(=O)C12CCN(Cc1ccc(Oc3ccccc3)cc1)CC2.Cl (stereo not drawn) [Compound 1b, 1-Butyl-3-isobutyl-9-(4-phenoxybenzyl)-1,4,9-triazaspiro[5.5]undecane-2,5-dione hydrochloride]
Cytotoxicity [1]: minimal

CC(C)CC1NC(=O)C2(CCN(Cc3ccc(Oc4ccccc4)cc3)CC2)N(CCC(C)O)C1=O.Cl (stereo not drawn) [Compound 4, 1-(3-Hydroxybutyl)-3-isobutyl-9-(4-phenoxybenzyl)-1,4,9-triazaspiro[5.5]undecane-2,5-dione hydrochloride]
BA ([2]; 30 mg/kg po vs 3 mg/kg iv): 34.1%

CCCCN1C(=O)C(COC)NC(=O)C12CCN(Cc1ccc(Oc3ccccc3)cc1)CC2 (stereo not drawn) [Compound 13, 1-Butyl-3-(methoxymethyl)-9-(4-phenoxybenzyl)-1,4,9-triazaspiro[5.5]undecane-2,5-dione hydrochloride]
IC50 [3]: 320 nM

CCCCN1C(=O)[C@H](CC2CCCCC2)NC(=O)C12CCN(Cc1ccc(Oc3ccc(O)cc3)cc1)CC2.Cl [Compound 36, (3S)-1-Butyl-3-(cyclohexylmethyl)-9-[4-(4-hydroxyphenoxy)benzyl]-1,4,9-triazaspiro[5.5]undecane-2,5-dione hydrochloride]
AUC [2]: 195 ng·h/mL

CCCCN1C(=O)[C@H](CC2CCCCC2)NC(=O)C12CCN(Cc1ccc(Oc3ccc(NS(C)(=O)=O)cc3)cc1)CC2.Cl [Compound 38, N-[4-(4-{[(3S)-1-Butyl-3-(cyclohexylmethyl)-2,5-dioxo-1,4,9-triazaspiro[5.5]undec-9-yl]methyl}phenoxy)phenyl]methanesulfonamide hydrochloride]
AUC after oral cassette dosing [4]: poor

CCCCN1C(=O)[C@H](CC2CCCCC2)NC(=O)C12CCN(Cc1ccc(Oc3ccc(S(N)(=O)=O)cc3)cc1)CC2.Cl [Compound 39, 4-(4-{[(3S )-1-Butyl-3-(cyclohexylmethyl)-2,5-dioxo-1,4,9-triazaspiro[5.5]undec-9-yl]methyl}phenoxy)benzenesulfonamide hydrochloride]
AUC after oral cassette dosing [4]: poor

CCCCN1C(=O)[C@H](CC2CCCCC2)NC(=O)C12CCN(Cc1ccc(Oc3ccc(C(=O)O)cc3)cc1)CC2.Cl [Compound 40, 4-(4-{[(3S)-1-Butyl-3-(cyclohexylmethyl)-2,5-dioxo-1,4,9-triazaspiro[5.5]undec-9-yl]methyl}phenoxy)benzoic acid hydrochloride]
Activity against T cell tropic (X4) HIV-1 [5]: inactive
AUC [2]: 10,532 ng h/mL
